In data set [1] the target is T1, Human recombinant His-tagged PFKFB3 (Homo sapiens, UniProt Q16875).
T1 construct: His; made in house
The data set can be described thus: PFKFB3 IC50 determination assay (modified ADP-Glo in vitro kinase assay). The data set is classed as biochemical. The conditions noted are these: ATP 20 μM, fructose-6-phosphate 2 μM, 2 h, rt. The method, then: In vitro kinase assay used to determine IC50 values for tested inhibitors is based on a modified ADP-Glo™ system (Promega) and consists of two parts:
1. Kinase reaction—performed in optimized conditions. At this step PFKFB3 phosphorylates its substrate fructose-6-phosphate using ATP as a source of phosphate to produce fructose-2,6-bisphosphate and ADP. Reaction is performed at Km values for ATP and substrate using optimized buffer composition and time of the reaction. Human recombinant His-tagged PFKFB3 (PFKFB3 BATCH II SEC) with confirmed activity is produced and purified in-house. 2. Detection of ADP as a product of the reaction using ADP-Glo™ system. This part is conducted by using the commercially available kit ADP-Glo™ Kinase Assay (Promega, cat. No# V9103) according to manufacturer's instruction, modified by 5× dilutions of assay reagents (both ADP-Glo™ Reagent and Kinase Detection Solution). Reproducibility and reliability of this modification is confirmed in an optimization process.
Test compounds are dissolved in DMSO and then transferred to the V-bottom 96-well plate. For IC50 determination ten 10× serial dilutions starting from 100 μM are prepared.
Two mixes are prepared on ice: Mix 1—containing appropriate kinase amount in 2× reaction buffer (100 mM TRIS pH 8.0) and Mix 2—containing 2.31× concentrated substrate (Fructose-6-phosphate) and ATP in MilliQ water. 15 μL per well of Mix 1 is transferred to assay wells of 96-well white plate. Next, 2 μl of 15× concentrated test compound in DMSO is added to Mix 1 for 20 min pre-incubation, followed by addition of Mix 2 (13 μl/well). Total reaction volume is 30 μL per well. Samples are tested in duplicates. Final concentration of DMSO in the reaction is 6.7%. Conditions needed for performing PFKFB3 (PFKFB3 BATCH II SEC) in vitro kinase assay are given below:
This protocol is based on Technical Bulletin, ADP-Glo™ Kinase Assay (Promega) and is adapted to 96-well plate containing 30 μL reaction mixture:
30 μL of 5× diluted ADP-Glo™ Reagent is added to each well of 96-well plate containing 30 μL of reaction mixture. The plate is incubated for 90 minutes on a shaker at rt. 60 μL of 5× diluted Kinase Detection Solution is added to each well of 96-well plate containing 60 μL of the solution (ratio of kinase reaction volume to ADP-Glo™ Reagent volume to Kinase Detection Solution volume is maintained at 1:1:2). Plate is incubated for 40 minutes on a shaker at rt, protected from light. Luminescence is measured in the plate reader Synergy 2 (BioTek).
Luminescent readouts for compounds tested in 10 concentrations (routinely from 100 μM to […], […] serial dilutions) in duplicates, as well as for positive control, are first normalized to no-substrate negative control by its subtraction. In the next step, % of normalized positive control is calculated for each data point and plotted against test compound concentration:
% of control—percent of positive control normalized to no-substrate negative control Lumcpd—luminescence of test compound Lumneg—luminescence of no-substrate negative control Lumpos—luminescence of positive control
IC50 parameter is determined by the GraphPad Prism 5.0 software [log(inhibitor) vs. response—Variable slope (four parameters)].

The nature of data set [2]: Microsomal stability (intrinsic clearance), mouse liver microsomes. The conditions noted are these: mouse, liver microsomes, pH 7.4, mouse liver microsomes. In kind it is in vitro ADME. The source says:
(§1) A microsomal stability assay is used to measure in vitro clearance (Clint). The assay involves measuring the rate of disappearance of a compound due to its intrinsic attitude to be metabolized (“intrinsic” meaning that the disappearance is not affected by other properties like permeability, binding etc. that play a role when quantifying in vivo clearance). The microsomal stability (intrinsic clearance, Clint) and thus metabolic stability is generally given as μl/min/mg protein. It can be visualized as the volume of solution that 1 mg of microsomes is able to clear of the compound in one minute.
(§2) A Tecan Genesis workstation (RSP 150/8) was used for to perform the microsomal incubations. Analysis was carried out using a Waters ACQUITY UPLC system coupled to an ABSciex API3000 mass spectrometer. Data analysis was performed using Assay Explorer (Symyx).
(§3) Mobile phases: A=0.1% formic acid in water; B=acetonitrile
(§4) Flow rate: 0.750 mL/min; Detection: ESI, MRM; Injection: 10 μL; Column temperature: 50° C.
(§5) Potassium phosphate buffer: 0.05 M potassium phosphate buffer pH 7.4 containing 1 mM MgCl2 NADPH (nicotinamide adenine dinucleotide phosphate): 22.5 mg NADPH-Na4 in 1.8 ml potassium phosphate buffer Acetonitrile: 50 Vol % acetonitrile (1 volume acetonitrile, 1 volume water) DMSO: 20 Vol % DMSO in water Stock solution of 20 mg/ml human or mouse liver microsomes (protein)/ml in phosphate buffer Stock solution of 10 mM compound in 100% DMSO

The nature of the next data set: Kinetic solubility. Conditions: phosphate buffer, pH 7.4, aqueous buffer, kinetic from dmso stock, phosphate buffer 20 mM pH 7.4, 2% DMSO, room temperature. The data set is classed as physicochemical. The method, then:
Kinetic solubility of compounds of the present invention were tested according the following procedure.
(a) Buffer Solution Phosphate Buffer 20 mM pH 7.4 is prepared using Sorensen Phosphate Buffer 0.2 M pH 7.4 (EMS) in a 1000 mL volumetric flask (b) 2% DMSO in Phosphate Buffer 20 mM pH 7.4 is prepared by using 1 mL Dimethylsulfoxide (Merck) and 49 ml Sorensen Phosphate Buffer 20 mM pH 7.4 (c) Acetonitrile/Methanole/Eluent A (1:1:2; v/v/v) is prepared by using 50 mL Acetonitrile (Merck), 50 mL Methanol (Merck) and 100 mL Eluent A (d) Eluent A is prepared by using 1 mL Formic Acid (Merck) and 999 mL Ultrapure water (e) Eluent B is prepared by using 1 mL Formic Acid (Merck) and 999 mL Acetonitrile (Merck) (f) Filtration plate: Millipore MultiScreen HTS HV (0.45 μm) 96 Well (Millipore)
98 μL buffer solution (a) is added into a well of a 96 well filtration plate (f). Then 2 μL of 10 mM test compound solution in DMSO (Remp tube) is added. The filtration plate is incubated at room temperature for 120 minutes while agitating at 250 rpm and centrifuged with the PP-Plate (g) as receiver plate below (2500 rpm, 3 min). The 50 μL of filtrate is taken from the receiver plate and mixed with 50 μL of 2% DMSO in buffer pH 7.4 solution (b) (dilution factor=2) in a HPLC Vial (i)+(j).
Standard is prepared by diluting 2 μL of the same 10 mM test compound solution (Remp tube) diluted with 198 μL Acetonitrile/Methanole/Eluent A (1:1:2; v/v/v) (c) to prepare a 100 μM standard solution in a HPLC Vial (i)+(j).
Column temperature: 37° C. Autosampler: room temperature (approx. 25° C.) Gradient programme: […]
Injection volume: 10 μL Wavelength: Suitable wavelength (maximum sensitivity) selected out of wavelength range of 190-400 nm using a DAD detector.
L [μg/mL]=(area sample*concentration standard*dilution factor sample)/(area standard*dilution factor standard)
S [mol/L]=[…] Calculation: […]

Data set [3] is described as follows: Microsomal stability (intrinsic clearance), human liver microsomes. The data set is classed as in vitro ADME. Conditions: human, liver microsomes, pH 7.4, human liver microsomes.
Excerpt: as §1, §2, §3, §4, §5

Where [4] appears, read: human recombinant PFKFB3 25 nM, read-out: PFKFB IC50.

≈ marks a conversion by molar mass, not a printed value. Like-named read-outs stand apart in the source and are kept apart here.

T1 sequence (Q16875 whole entry): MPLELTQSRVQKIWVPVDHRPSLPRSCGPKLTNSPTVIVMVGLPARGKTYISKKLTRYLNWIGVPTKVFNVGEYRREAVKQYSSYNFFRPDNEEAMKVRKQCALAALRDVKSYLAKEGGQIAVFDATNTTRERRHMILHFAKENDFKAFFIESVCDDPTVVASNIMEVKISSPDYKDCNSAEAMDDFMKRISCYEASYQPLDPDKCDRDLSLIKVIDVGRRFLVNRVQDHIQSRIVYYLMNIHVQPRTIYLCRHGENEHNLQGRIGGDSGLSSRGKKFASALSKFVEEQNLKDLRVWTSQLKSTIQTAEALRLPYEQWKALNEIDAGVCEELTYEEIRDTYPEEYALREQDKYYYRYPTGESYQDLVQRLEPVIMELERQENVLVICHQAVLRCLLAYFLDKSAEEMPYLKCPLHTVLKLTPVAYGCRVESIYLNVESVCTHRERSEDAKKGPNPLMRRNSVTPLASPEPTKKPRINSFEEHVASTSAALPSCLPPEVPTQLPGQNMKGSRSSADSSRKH

Take `Cn1ccc2ccc(-c3cc(NC(c4cccnc4)c4ccc(=O)[nH]n4)cc4nccnc34)cc21` (stereo not shown) [Example 1, 6-{[8-(1-Methyl-1H-indol-6-yl)-quinoxalin-6-ylamino]-pyridin-3-yl-methyl}-2H-pyridazin-3-one]: in data set [1] (setting [4]), the IC50 turned out to be 32 nM. Besides, the figures for the microsomal CLint in data set [2] and in data set [3] were 122 µL/min/mg and 78 µL/min/mg, respectively. Further, the solubility (kinetic) at 120 min in the data set “Kinetic solubility” turned out to be 69 µM (≈ 31.7 µg/mL).

Turning to `CC(C)[C@H](Nc1cc(-c2ccc3ccn(C)c3c2)c2nccnc2c1)c1cccnc1` (single isomer, unassigned) [Example 21], the IC50 in data set [1] (PFKFB IC50, human recombinant PFKFB3 25 nM) came out at 23 nM. In addition, the microsomal CLint in data set [2] was found to be 488 µL/min/mg; in data set [3], 366 µL/min/mg. Further, in the data set “Kinetic solubility”, the kinetic solubility at 120 min stood at 7 µM (≈ 2.85 µg/mL).

For `Cn1ccc([C@H](Nc2cc(-c3ccc4ccn(C)c4c3)c3nccnc3c2)c2cnnn2C)n1` (single isomer, unassigned) [Example 30], in data set [1] (setting [4]), the IC50 came out at 190 nM. Also, the microsomal CLint is 216 µL/min/mg in data set [2] and 132 µL/min/mg in data set [3]. For the same molecule, the kinetic solubility at 120 min in the data set “Kinetic solubility” was found to be 96 µM (≈ 43.2 µg/mL).

As for `Cn1cc([C@H](Nc2cc(-c3cnc4ccn(C)c4c3)c3nccnc3c2)c2cccnc2)cn1` (single isomer, unassigned) [Example 27], the IC50 in data set [1] (setting [4]) was 6300 nM. The microsomal CLint in data set [2] is 64 µL/min/mg; in data set [3], 404 µL/min/mg. In the data set “Kinetic solubility”, this molecule showed a solubility (kinetic) at 120 min of 161 µM (≈ 71.9 µg/mL).

The values are drawn from patent US20190256499A1, “SUBSTITUTED QUINOXALINE DERIVATIVES AS INHIBITORS OF PFKFB” (priority 2016, published 2019).
